# Tested on: SLC16A11
# Test: Compound treatment, SLC16A11 expression by ddPCR in SNU761 cells
# Format: cell-based, human
# Settings: SNU761 cells; same doses and treatment times as in the LINCS dataset
# Description: A small number of the compounds that made the strongest positive connections to the SLC16A11 gene expression signature were selected and tested. […] Methotrexate was also included, which had been annotated as a dihydrofolate reductase inhibitor. SNU761 cells (derived from a human hepatocellular carcinoma) and NCIH716 cells (derived from a human cecum adenocarcinoma), which both express SLC16A11, were treated with the compounds. The same compound concentrations and treatment times were used as in the LINCS dataset experiments. […] For normalization, a different housekeeper gene, HPRT1, was used and obtained similar results with the mTOR inhibitors (FIGS. 14A and 14B).
# From the total list of compounds, 59 readily available compounds were selected from the 79 compounds with the largest connectivity scores to the query signature and 20 middle compounds with connectivity scores centered on 0 (FIG. 15A) and then treated SNU761 cells at the same doses and treatment times as were used in the LINCS dataset. It was expected that the top compounds would be enriched for compounds that increased SLC16A11 expression. […] The results were aligned with the expectations (FIG. 15B). Hierarchical clustering of the SLC16 expression profiles generated by the compound treatments are shown by the heat map in FIG. 15C.
# SNU761 (human hepatocellular carcinoma) and NCIH716 (human cecum adenocarcinoma) were cultured in RPMI Medium 1640 supplemented with 10% Fetal Bovine Serum (FBS), 100 μg/ml Streptomycin and 100 U/ml Penicillin. Cells were grown in a humidified CO2 incubator, at 37° C.
# For the unbiased approach taken to investigate the compounds that connected to the SLC16A11 gene expression signature, compounds were obtained from compound management at the Broad Institute.
# SNU761 and NCIH716 cells were plated into 96 well plates at a density of 20,000 cells per well. Hepatocytes were plated into collagen coated 96 well plates (Corning, 354408) at a density of 50,000 cells per well. After 24 hours, cells were treated with compounds at a final concentration of 10 μM or vehicle control for the appropriate amount of time.
# At the time of collection, cells in 96 well plates were lysed by directly adding 50 μL of RLT buffer (Qiagen). 75 μL of AMPure XP beads, diluted by a factor of 5 in polyethylene glycol, were then added to bind nucleic acids. One wash with polyethylene glycol was then performed. DNase treatment (Qiagen) was carried out according to the manufacturer's protocol in a final volume of 50 μL. 100 μL of polyethylene glycol was added after the DNase treatment to crowd nucleic acids back onto the beads. Two washes with 80% ethanol were performed and residual ethanol was removed. RNA was then eluted in water.
# RNA was DNase treated and converted into cDNA using the High-Capacity RNA-to-cDNA kit (Thermo Fisher Scientific). The following FAM-labeled TaqMan Real-Time PCR assays (Thermo Fisher Scientific) were used to quantify gene expression: SLC16A11 (Hs00601062_g1), SLC16A13 (Hs00416832_m1), SLC16A1 (Hs01560299_m1). The VIC-labeled TaqMan Real-Time assays TBP (Hs00427620_m1) or HPRT1 (Hs02800695_m1) were used for normalization. Droplets were generated and analyzed using a QX200 Droplet Generator and Reader system (BioRad). Data was extracted using QuantaSoft (BioRad) and analyzed using Microsoft Excel.
row,Compound,"avg_fc (SLC16A11 expression, compound treated vs DMSO treated cells)"
1,NC1(c2ccc(-c3nc4ccn5c(=O)[nH]nc5c4cc3-c3ccccc3)cc2)CCC1 [MK-2206],0.6972
2,bisindolylmaleimide,0.4265
3,O=C1NC(=O)/C(=C/c2ccc3nccc(-c4ccncc4)c3c2)S1 [GSK-1059615],1.25
4,Cc1cnc(NC(=O)C2=C(O)c3ccccc3S(=O)(=O)N2C)s1 [meloxicam],0.9414
5,c1nc2nc(Nc3ccc(N4CCOCC4)cc3)nc(NC3CCCCC3)c2[nH]1 [reversine],3.235
6,c1ccc2c(CCNc3ccc(Nc4ccncc4)cc3)c[nH]c2c1 [JNJ-26854165],0.5328
7,Nc1[nH]nc2nnc(-c3c(-c4ccccc4)nn4ccccc34)cc12 [FR-180204],0.915
8,Clc1ccc(COC(Cn2ccnc2)c2ccc(Cl)cc2Cl)cc1 (centres unmarked) [econazole],1.178
9,COc1ccccc1OCC(O)CN1CCN(CC(=O)Nc2c(C)cccc2C)CC1 (centres unmarked) [ranolazine],0.7654
10,O=C1OC2(c3ccccc31)c1cc(I)c(O)c(I)c1Oc1c2cc(I)c(O)c1I [erythrosine],0.649
11,Nc1ccc(-c2ccc3ncc4ccc(=O)n(-c5cccc(C(F)(F)F)c5)c4c3c2)cn1 [torin-2],2.843
12,COc1cc2nccc(Oc3ccc(NC(=O)Nc4cc(C)on4)c(Cl)c3)c2cc1OC [tivozanib],1.647
13,NC(=O)c1ccc(N(C(N)=O)c2c(F)cccc2F)nc1-c1ccc(F)cc1F [VX-702],0.8683
14,O=C1CC[C@@]2(O)[C@H]3Cc4ccc(O)c5c4[C@@]2(CCN3CC2CC2)[C@H]1O5 [naltrexone],1.183
15,"Cn1c(=O)n(-c2ccc(C(C)(C)C#N)cc2)c2c3cc(-c4cnc5ccccc5c4)ccc3ncc21 [NVP-BEZ235, 2-methyl-2-[4-(3-methyl-2-oxo-8-quinolin-3-ylimidazo[4,5-c]quinolin-1-yl)phenyl]propanenitrile, reference compound]",2.779
16,"NC(=O)Nc1cc(-c2cccc(F)c2)sc1C(=O)N[C@H]1CCCNC1 [AZD-7762, 3-[(aminocarbonyl)amino]-5-(3-fluorophenyl)-N-(3S)-3-piperidinyl-2-thiophenecarboxamide, reference compound]",4.924
17,COc1cccc(-c2cc(=O)c3ccccc3o2)c1N [PD-98059],0.7929
18,NS(=O)(=O)c1cc2c(cc1C(F)(F)F)NC(Cc1ccccc1)NS2(=O)=O (centres unmarked) [bendroflumethiazide],0.7917
19,O=C(NOC[C@H](O)CO)c1ccc(F)c(F)c1Nc1ccc(I)cc1F [PD-0325901],2.181
20,C[C@H]1O[C@@H](O[C@H]2[C@@H](O)C[C@H](O[C@H]3[C@@H](O)C[C@H](O[C@H]4CC[C@@]5(C)[C@H](CC[C@@H]6[C@@H]5CC[C@]5(C)[C@@H](C7=CC(=O)OC7)CC[C@]65O)C4)O[C@@H]3C)O[C@@H]2C)C[C@H](O)[C@@H]1O [digitoxin],1.375
21,"CO[C@H]1C[C@@H]2CC[C@@H](C)[C@@](O)(O2)C(=O)C(=O)N2CCCC[C@H]2C(=O)O[C@H]([C@H](C)C[C@@H]2CC[C@@H](OP(C)(C)=O)[C@H](OC)C2)CC(=O)[C@H](C)/C=C(\C)[C@@H](O)[C@@H](OC)C(=O)[C@H](C)C[C@H](C)/C=C/C=C/C=C/1C [deforolimus, reference compound]",1.903
22,Nc1nc(N)c2nc(-c3cccc(O)c3)c(-c3cccc(O)c3)nc2n1 [TG100-115],1.086
23,O=C1NC(=O)/C(=C\c2ccc3nccnc3c2)S1 [AS-605240],0.7908

row,Compound,"avg_fc (SLC16A11 expression, compound treated vs DMSO treated cells)"
1,COc1ccc(-c2cc(=O)c3c(OC)c(OC)c(OC)c(OC)c3o2)cc1OC [nobiletin],1.129
2,COCC(=O)NC/C=C/c1ccc2ncnc(Nc3ccc(Oc4ccc(C)nc4)c(C)c3)c2c1 [CP-724714],1.37
3,COc1ccc2c(c1OC)N=C(NC(=O)c1cccnc1)N1CCN=C21 [PIK-90],1.487
4,C[C@@H]1C[C@@H]([C@H](O)CC2CC(=O)NC(=O)C2)C(=O)[C@@H](C)C1 [cycloheximide],1.243
5,Cc1[nH]c(/C=C2\C(=O)Nc3ccc(S(=O)(=O)N(C)c4cccc(Cl)c4)cc32)c(C)c1C(=O)N1CCN(C)CC1 [SU-11274],1.059
6,COc1ccc2ccc(=O)oc2c1 [herniarin],0.9563
7,COc1ccc(CNC(=O)/C=C/c2ccc3[nH]cc(CCN(C)C)c3c2)cc1 [GR-46611],0.6609
8,Clc1cncc(N2CCNCC2)n1 [MK-212],0.8022
9,Cn1cc(C(=O)C(=O)NC2CN3CCC2CC3)c2ccccc21 (centres unmarked) [RS-56812],0.9914
10,"CO[C@H]1C[C@@H]2CC[C@@H](C)[C@@](O)(O2)C(=O)C(=O)N2CCCC[C@H]2C(=O)O[C@H]([C@H](C)C[C@@H]2CC[C@@H](O)[C@H](OC)C2)CC(=O)[C@H](C)/C=C(\C)[C@@H](O)[C@@H](OC)C(=O)[C@H](C)C[C@H](C)/C=C/C=C/C=C/1C [rapamycin, reference compound]",1.662
11,O=C(NC[C@H](O)CO)c1ccncc1Nc1ccc(I)cc1F [AS-703026],1.68
12,N#CC(C#N)=C(N)/C(C#N)=C/c1ccc(O)cc1 [tyrphostin-AG-112],0.7594
13,Cc1cccc(CCN2CCC(C(=O)c3ccc(NS(C)(=O)=O)cc3)CC2)n1 [E-4031],0.9411
14,COCCCOc1cc(C[C@@H](C[C@H](N)[C@@H](O)C[C@H](C(=O)NCC(C)(C)C(N)=O)C(C)C)C(C)C)ccc1OC [aliskiren],0.8853
15,COc1cc(Nc2ncc(F)c(Nc3ccc4c(n3)N(COP(=O)(O)O)C(=O)C(C)(C)O4)n2)cc(OC)c1OC [fostamatinib],3.274
16,CC[C@@H]1C(=O)OC[C@@H]1Cc1cncn1C [pilocarpine],0.7379
17,CC(C)OC(=O)c1cc2c(OCC(O)CNC(C)(C)C)cccc2[nH]1 (centres unmarked) [carpindolol],0.8548
18,c1ccc2c(CCNc3ccc(Nc4ccncc4)cc3)c[nH]c2c1 [serdemetan],0.6384
19,CC1(C)C[C@@H]1C(=O)N/C(=C\CCCCSC[C@H](N)C(=O)O)C(=O)O [cilastatin],0.9371
20,O=C(NOCC1CC1)c1ccc(F)c(F)c1Nc1ccc(I)cc1Cl [PD-184352],1.445
21,"COC(=O)Nc1ccc(-c2nc(N3CCOCC3)c3cnn(C4CCN(C(=O)OC)CC4)c3n2)cc1 [WYE-354, methyl 4-[6-[4-(methoxycarbonylamino)phenyl]-4-morpholin-4-ylpyrazolo[3,4-d]pyrimidin-1-yl]piperidine-1-carboxylate, reference compound]",3.517
22,O=C(NC(COc1ccc2[nH]c(=O)[nH]c2c1)c1ccccc1)c1cccn(Cc2ccc(F)c(F)c2)c1=O (centres unmarked) [KIN001-244],1.084
23,Cc1nc2c(c(=O)[nH]1)CSCC2 [DR-2313],1.127

# Same assay, conditions: SNU761 cells; unbiased test of 59 top and 20 middle LINCS compounds; LINCS doses and times
row,Compound,"increase in SLC16A11 expression, compound treated compared to DMSO treated cells"
1,"NC(=O)Nc1cc(-c2cccc(F)c2)sc1C(=O)N[C@H]1CCCNC1 [AZD-7762, 3-[(aminocarbonyl)amino]-5-(3-fluorophenyl)-N-(3S)-3-piperidinyl-2-thiophenecarboxamide, reference compound]",about 5 fold
